Consider 28 compounds from US7511145B2 (Genelabs Technologies, Inc., priority 2003, dated 2009).

In the experiment the target is T1, HCV-NS5b (Hepatitis C virus genotype 1b, UniProt Q9WMX2).
T1 construct: (His)6 (C); made in house; host or cells: XL-1 cells (E. coli), IPTG-inducible plasmid, nickel-NTA purification
Description: HCV-NS5b enzyme assay (incorporation of radiolabeled UTP). In kind it is biochemical. Conditions: for inhibition at 33 µM: enzyme inhibition at compound concentration of 33 uM; for inhibition at 100 µM: read-out: % inh@100, enzyme inhibition at compound concentration of 100 uM. The essentials:
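His6-tagged NS5b lacking the C-terminal 21 residues, expressed in XL-1 and Ni-NTA purified. Reaction at pH 7.5 with 5 mM MgCl2, 10 μM each NTP including [3H]-UTP and biotinylated HCV heteropolymeric template, 2 h at 37° C; SPA read-out; % inhibition at 100 and 33 uM versus no-compound control, background subtracted.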

For the compound `Cc1cc(-c2nc3cc(C(=O)O)ccc3n2C2CCCCC2)cc2ccc(-c3ccccc3-c3ccccc3)nc12` [Compound 379, 2-(2-Biphen-2-yl-8-methyl-quinolin-6-yl)-1-cyclohexyl-1H-benzoimidazole-5-carboxylic acid], the inhibition at 33 µM is 93.3% and the inhibition at 100 µM came to 97.8%.

Turning to `O=C(O)c1ccc2c(c1)nc(-c1ccc3nc(-c4ccccc4)cc(Nc4ccc(Cl)cc4)c3c1)n2C1CCCCC1` [Compound 380, 2-[4-(4-chloro-phenylamino)-2-phenyl-quinolin-6-yl]-1-cyclohexyl-1H-benzoimidazole-5-carboxylic acid], the inhibition at 33 µM amounted to 97.6% and the inhibition at 100 µM is 101%.

Turning to `O=C(O)c1ccc2c(c1)nc(-c1ccc3nc(-c4cc(O)cc(O)c4)ccc3c1)n2C1CCCCC1` [Compound 381, 1-cyclohexyl-2-[2-(3,5-dihydroxy-phenyl)-quinolin-6-yl]-1H-benzoimidazole-5-carboxylic acid], the inhibition at 33 µM was 94.3% and the inhibition at 100 µM amounted to 98%.

`COc1ccc(-c2ccc(C(N)=O)cc2)c(-c2ccc3cc(-c4nc5cc(C(=O)O)ccc5n4C4CCCCC4)ccc3n2)c1` [Compound 382, 2-[2-(4′-carbamoyl-4-methoxy-biphen-2-yl)-quinolin-6-yl]-1-cyclohexyl-1H-benzoimidazole-5-carboxylic acid]: the inhibition at 33 µM is 101% and the inhibition at 100 µM amounted to 101%.

Consider `COc1ccc(-c2ccc(CN)cc2)c(-c2ccc3cc(-c4nc5cc(C(=O)O)ccc5n4C4CCCCC4)ccc3n2)c1` [Compound 384, 2-[2-(4′-aminomethyl-4-methoxy-biphen-2-yl)-quinolin-6-yl]-1-cyclohexyl-1H-benzoimidazole-5-carboxylic acid], for which the inhibition at 33 µM was determined as 95.5% and the inhibition at 100 µM came out at 99.3%.

Turning to `NC(=O)[C@H](CO)NC(=O)c1ccc2cc(-c3nc4cc(C(=O)O)ccc4n3C3CCCCC3)ccc2n1` [Compound 385, 2-[2-(1-Carbamoyl-2-hydroxyethylcarbamoyl)quinolin-6-yl]-1-cyclohexyl-1H-benzimidazole-5-carboxylic acid], the inhibition at 33 µM was determined as 42.6% and the inhibition at 100 µM was 76.2%.

In the case of `O=C(O)c1ccc2c(c1)nc(-c1ccc3nc(-c4ccccc4)c(-c4ccccc4)cc3c1)n2C1CCCCC1` [Compound 386, 1-cyclohexyl-2-(2,3-diphenyl-quinolin-6-yl)-1H-benzoimidazole-5-carboxylic acid], the inhibition at 33 µM was 100% and the inhibition at 100 µM amounted to 99.9%.

In the case of `O=C(O)c1ccc2c(c1)nc(-c1ccc3nc(-c4ccccc4-c4ccc(Cl)cc4)ccc3c1)n2C1CCCCC1` [Compound 387, 2-[2-(4′-Chloro-biphen-2-yl)-quinolin-6-yl]-1-cyclohexyl-1H-benzoimidazole-5-carboxylic acid], the inhibition at 33 µM came to 99% and the inhibition at 100 µM was found to be 98.7%.

Turning to `O=C(O)c1ccc2c(c1)nc(-c1cc3ccc(-c4ccccc4-c4ccccc4)nc3cc1F)n2C1CCCCC1` [Compound 388, 2-(2-Biphen-2-yl-7-fluoro-quinolin-6-yl)-1-cyclohexyl-1H-benzoimidazole-5-carboxylic acid], the inhibition at 33 µM came out at 98.7% and the inhibition at 100 µM was determined as 98.6%.

As for `Cc1ccc(-c2nc3ccc(-c4nc5cc(C(=O)O)ccc5n4C4CCCCC4)cc3nc2-c2ccc(C)cc2)cc1` [Compound 389, 1-Cyclohexyl-2-(2,3-di-p-tolylquinoxalin-6-yl)-1H-benzimidazole-5-carboxylic acid], the inhibition at 33 µM was found to be 99.9% and the inhibition at 100 µM is 99.5%.

Take `O=C(O)c1ccc2c(c1)nc(-c1ccc3nc(-c4ccc(-c5ccccc5)cc4)ccc3c1)n2C1CCCCC1` [Compound 390, 2-(2-biphenyl-4-yl-quinolin-6-yl)-1-cyclohexyl-1H-benzoimidazole-5-carboxylic acid]: the inhibition at 33 µM is 79.9% and the inhibition at 100 µM was determined as 92.5%.

Turning to `Cc1nc(N)sc1-c1ccc2cc(-c3nc4cc(C(=O)O)ccc4n3C3CCCCC3)ccc2n1` [Compound 391], the inhibition at 33 µM amounted to 94.1% and the inhibition at 100 µM turned out to be 97.5%.

On to `O=C(O)c1ccc2c(c1)nc(-c1ccc3nc(CCCO)ccc3c1)n2C1CCCCC1` [Compound 392, 1-Cyclohexyl-2-[2-(3-hydroxy-propyl)-quinolin-6-yl]-1H-benzoimidazole-5-carboxylic acid], for which the inhibition at 33 µM was found to be 83.8% and the inhibition at 100 µM stood at 93.5%.

`O=C(O)COc1ccc(-c2ccc(Cl)cc2)c(-c2ccc3cc(-c4nc5cc(C(=O)O)ccc5n4C4CCCCC4)ccc3n2)c1` [Compound 393, 2-[2-(4-Carboxymethoxy-4′-chloro-biphen-2-yl)-quinolin-6-yl]-1-cyclohexyl-1H-benzoimidazole-5-carboxylic acid]: the inhibition at 33 µM worked out at 97.6% and the inhibition at 100 µM worked out at 96.9%.

For `COc1cc(Br)c2oc(-c3ccc4cc(-c5nc6cc(C(=O)O)ccc6n5C5CCCCC5)ccc4n3)cc2c1` [Compound 394, 2-[2-(7-bromo-5-methoxy-benzofuran-2-yl)-quinolin-6-yl]-1-cyclohexyl-1H-benzoimidazole-5-carboxylic acid], the inhibition at 33 µM stood at 98.9% and the inhibition at 100 µM was 100%.

Take `O=C(O)c1ccc2c(c1)nc(-c1ccc3nc(-c4ccccc4-c4ccccc4)ccc3c1)n2C1CCCCC1` [Compound 395, 2-(2-biphen-2-yl-quinolin-6-yl)-1-cyclohexyl-1H-benzoimidazole-5-carboxylic acid]: the inhibition at 33 µM stood at 100% and the inhibition at 100 µM stood at 101%.

For the compound `Cc1onc(-c2ccc(Cl)cc2)c1-c1ccc2cc(-c3nc4cc(C(=O)O)ccc4n3C3CCCCC3)ccc2n1` [Compound 396, 2-{2-[3-(4-chloro-phenyl)-5-methyl-isoxazol-4-yl]-quinolin-6-yl}-1-cyclohexyl-1H-benzoimidazole-5-carboxylic acid], the inhibition at 33 µM was 100% and the inhibition at 100 µM was 100%.

`Cc1cc(-c2nc3cc(C(=O)O)ccc3n2C2CCCCC2)cc2ccc(-c3ccccc3)nc12` [Compound 397, 1-Cyclohexyl-2-(8-methyl-2-phenyl-quinolin-6-yl)-1H-benzoimidazole-5-carboxylic acid]: the inhibition at 33 µM was determined as 95.6% and the inhibition at 100 µM was determined as 99.3%.

Consider `O=C(O)c1ccc2c(c1)nc(-c1ccc3nc(-c4ccccc4)cc(NCCCCO)c3c1)n2C1CCCCC1` [Compound 398, 1-cyclohexyl-2-[4-(4-hydroxy-butylamino)-2-phenyl-quinolin-6-yl]-1H-benzoimidazole-5-carboxylic acid], for which the inhibition at 33 µM amounted to 59.6% and the inhibition at 100 µM is 92%.

For `CC(C)(C)OC(=O)NCCNc1cc(-c2ccccc2)nc2ccc(-c3nc4cc(C(=O)O)ccc4n3C3CCCCC3)cc12` [Compound 399, 2-[4-(2-tert-butoxycarbonylamino-ethylamino)-2-phenyl-quinolin-6-yl]-1-cyclohexyl-1H-benzoimidazole-5-carboxylic acid], the inhibition at 33 µM came out at 95.6% and the inhibition at 100 µM came out at 102%.

`COc1ccc(-c2ccc(N(C)C)cc2)c(-c2ccc3cc(-c4nc5cc(C(=O)O)ccc5n4C4CCCCC4)ccc3n2)c1` [Compound 401, 1-cyclohexyl-2-[2-(4′-dimethylamino-4-methoxy-biphen-2-yl)-quinolin-6-yl]-1H-benzoimidazole-5-carboxylic acid]: the inhibition at 33 µM came to 100% and the inhibition at 100 µM is 101%.

Consider `COc1ccc(-c2ccc(Cl)c(Cl)c2)c(-c2ccc3cc(-c4nc5cc(C(=O)O)ccc5n4C4CCCCC4)ccc3n2)c1` [Compound 403, 1-cyclohexyl-2-[2-(3′,4′-dichloro-4-methoxy-biphen-2-yl)-quinolin-6-yl]-1H-benzoimidazole-5-carboxylic acid], for which the inhibition at 33 µM is 99.4% and the inhibition at 100 µM was found to be 99.9%.

On to `CCOc1ccc([N+](=O)[O-])cc1-c1ccc2cc(-c3nc4cc(C(=O)O)ccc4n3C3CCCCC3)ccc2n1` [Compound 404, 1-cyclohexyl-2-[2-(2-ethoxy-5-nitro-phenyl)-quinolin-6-yl]-1H-benzoimidazole-5-carboxylic acid], for which the inhibition at 33 µM amounted to 102% and the inhibition at 100 µM turned out to be 101%.

Turning to `O=C(O)c1ccc2c(c1)nc(-c1ccc3ccc(-c4ccccc4)nc3c1)n2C1CCCCC1` [Compound 405, 1-Cyclohexyl-2-(2-phenyl-quinolin-7-yl)-1H-benzoimidazole-5-carboxylic acid], the inhibition at 33 µM turned out to be 90.5% and the inhibition at 100 µM came to 98.9%.

Take `O=C(O)c1ccc2c(c1)nc(-c1ccc3nc(-c4ccccc4)c(-c4ccccc4)nc3c1)n2C1CCCCC1` [Compound 406, 1-Cyclohexyl-2-(2,3-diphenylquinoxalin-6-yl)-1H-benzimidazole-5-carboxylic acid]: the inhibition at 33 µM worked out at 97.3% and the inhibition at 100 µM was found to be 98.1%.

In the case of `O=C(O)c1ccc2c(c1)nc(-c1cc3ccc(-c4ccccc4-c4ccc(Cl)cc4)nc3cc1F)n2C1CCCCC1` [Compound 408, 2-[2-(4′-Chloro-biphen-2-yl)-7-fluoro-quinolin-6-yl]-1-cyclohexyl-1H-benzoimidazole-5-carboxylic acid], the inhibition at 33 µM turned out to be 99.3% and the inhibition at 100 µM came to 98.9%.

On to `O=C(O)c1ccc2c(c1)nc(-c1ccc3nc(-c4ccc(F)cc4)c(-c4ccc(F)cc4)nc3c1)n2C1CCCCC1` [Compound 409, 2-[2,3-Bis-(4-fluorophenyl)quinoxalin-6-yl]-1-cyclohexyl-1H-benzimidazole-5-carboxylic acid], for which the inhibition at 33 µM came out at 97.9% and the inhibition at 100 µM was determined as 99.9%.

Regarding `O=C(c1ccc2c(c1)nc(-c1cc3ccc(-c4ccccc4-c4ccccc4)nc3cc1F)n2C1CCCCC1)N1CCC(O)CC1` [Compound 410], the inhibition at 33 µM was determined as 84.3% and the inhibition at 100 µM came to 88.6%.
